# pEC50, pIC50, pKd: −log10 of the molar value. Activity calls are given as the source filed them. No cut-off for these calls is given here.
# How the values were obtained:
# [1] = target: T1, Mixed lineage kinase domain-like protein (Homo sapiens) (UniProt Q8NB16); experiment: Covalent inhibition of MLKL in TNFalpha/Smac mimetic/Z-VAD-fmk-induced human HT-29 cells assessed as inhibition of necroptosis pretreated for 3 hrs followed by washout and further treated with TNFalpha/Smac mimetic/Z-VAD-fmk and measured after 8 hrs by CellTiter luminescence cell viability assay; type: cell-based
# T1 sequence (whole entry): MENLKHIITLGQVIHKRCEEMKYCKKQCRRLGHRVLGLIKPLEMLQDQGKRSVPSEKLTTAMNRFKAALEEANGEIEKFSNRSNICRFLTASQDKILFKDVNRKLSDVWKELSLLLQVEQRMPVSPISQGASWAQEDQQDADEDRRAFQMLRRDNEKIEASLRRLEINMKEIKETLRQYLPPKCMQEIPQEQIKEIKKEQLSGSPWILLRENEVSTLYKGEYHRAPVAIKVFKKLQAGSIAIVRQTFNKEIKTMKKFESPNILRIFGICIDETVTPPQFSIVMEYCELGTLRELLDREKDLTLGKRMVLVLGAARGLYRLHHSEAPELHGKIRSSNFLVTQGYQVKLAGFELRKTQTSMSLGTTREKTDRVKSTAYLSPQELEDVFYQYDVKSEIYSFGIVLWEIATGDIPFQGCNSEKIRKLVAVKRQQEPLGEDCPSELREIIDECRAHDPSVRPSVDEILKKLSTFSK
# [2] = target: T1, Mixed lineage kinase domain-like protein (Homo sapiens); experiment: Covalent inhibition of MLKL in TNFalpha/Smac mimetic/Z-VAD-fmk-induced human HT-29 cells assessed as inhibition of necroptosis pretreated for 1 hrs followed by washout and further treated with TNFalpha/Smac mimetic/Z-VAD-fmk and measured after 8 hrs by CellTiter luminescence cell viability assay; type: cell-based
# [3] = system: L929; experiment: Anti-necroptosis activity against TNF-alpha/Z-VAD-FMK induced mouse L929 cells at 20 uM; type: functional, cell-based
# [4] = target: T2, Receptor-interacting serine/threonine-protein kinase 3 (Homo sapiens, UniProt Q9Y572); experiment: Inhibition of RIPK3 phosphorylation in TNFalpha/Smac mimetic/Z-VAD-fmk-induced human HT-29 cells at 2 uM measured after 6 hrs by Western blot analysis; type: cell-based
# Target sequence in this assay (Q9Y572 whole entry, looked up): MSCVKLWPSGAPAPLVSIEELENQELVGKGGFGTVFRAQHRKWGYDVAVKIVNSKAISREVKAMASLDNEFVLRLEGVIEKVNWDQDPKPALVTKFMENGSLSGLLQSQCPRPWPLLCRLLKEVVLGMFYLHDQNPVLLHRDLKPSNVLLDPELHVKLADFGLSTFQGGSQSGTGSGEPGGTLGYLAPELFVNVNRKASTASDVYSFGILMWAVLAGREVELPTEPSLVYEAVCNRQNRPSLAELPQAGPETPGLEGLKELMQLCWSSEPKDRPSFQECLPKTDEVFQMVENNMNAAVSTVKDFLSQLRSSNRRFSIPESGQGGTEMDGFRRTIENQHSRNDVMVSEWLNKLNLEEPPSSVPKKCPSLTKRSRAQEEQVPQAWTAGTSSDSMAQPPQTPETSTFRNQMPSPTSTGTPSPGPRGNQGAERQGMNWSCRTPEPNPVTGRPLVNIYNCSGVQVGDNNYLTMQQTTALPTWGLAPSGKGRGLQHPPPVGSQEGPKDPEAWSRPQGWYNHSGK
# [5] = system: HT-29; experiment: Anti-necroptosis activity against TNFalpha/Smac mimetic/Z-VAD-fmk-induced human HT-29 cells by CellTiter luminescence cell viability assay; type: functional, cell-based
# [6] = target: T1, Mixed lineage kinase domain-like protein (Homo sapiens); experiment: Inhibition of MLKL phosphorylation in TNFalpha/Smac mimetic/Z-VAD-fmk-induced human HT-29 cells at 2 uM measured after 6 hrs by Western blot analysis; type: cell-based
# [7] = target: T1, Mixed lineage kinase domain-like protein (Homo sapiens); experiment: Covalent inhibition of MLKL in TNFalpha/Smac mimetic/Z-VAD-fmk-induced human HT-29 cells assessed as inhibition of necroptosis pretreated for 5 mins followed by washout and further treated with TNFalpha/Smac mimetic/Z-VAD-fmk and measured after 8 hrs by CellTiter luminescence cell viability assay; type: cell-based
# [8] = system: HT-29; experiment: Anti-necroptosis activity against TNFalpha/Smac mimetic/Z-VAD-fmk-induced human HT-29 cells measured after 24 hrs by CellTiter-Glo assay; type: functional, cell-based; settings: HT-29, 24 h
# [9] = Anti-necroptosis activity against TNF-alpha induced human Jurkat-FADD-/- cells pretreated for 30 mins followed by TNF-alpha addition and further incubated overnight by CellTiter-Glo 2.0 assay; type: functional, cell-based
# [10] = target: T3, Receptor-interacting serine/threonine-protein kinase 1 (Homo sapiens, UniProt Q13546); experiment: Binding affinity to RIPK1 (unknown origin) assessed as dissociation constant by displacement assay
# T3 sequence (Q13546 whole entry): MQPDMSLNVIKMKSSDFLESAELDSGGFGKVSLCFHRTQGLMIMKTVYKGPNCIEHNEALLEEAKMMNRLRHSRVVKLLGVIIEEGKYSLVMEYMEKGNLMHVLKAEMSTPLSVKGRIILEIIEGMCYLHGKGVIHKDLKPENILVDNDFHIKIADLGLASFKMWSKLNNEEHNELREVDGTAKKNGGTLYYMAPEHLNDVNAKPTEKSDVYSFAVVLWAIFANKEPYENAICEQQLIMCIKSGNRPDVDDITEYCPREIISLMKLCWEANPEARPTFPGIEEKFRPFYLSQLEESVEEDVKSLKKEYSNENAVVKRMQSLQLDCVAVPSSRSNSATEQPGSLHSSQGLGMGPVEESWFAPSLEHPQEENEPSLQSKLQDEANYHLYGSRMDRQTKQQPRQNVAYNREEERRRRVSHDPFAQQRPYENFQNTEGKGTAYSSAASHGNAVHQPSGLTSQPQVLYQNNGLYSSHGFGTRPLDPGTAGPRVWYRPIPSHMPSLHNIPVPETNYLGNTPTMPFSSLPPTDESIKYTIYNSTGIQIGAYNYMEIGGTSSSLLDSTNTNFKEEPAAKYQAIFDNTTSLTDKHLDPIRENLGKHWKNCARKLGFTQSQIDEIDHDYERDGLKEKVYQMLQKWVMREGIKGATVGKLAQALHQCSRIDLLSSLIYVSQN
# [11] = target: T2, Receptor-interacting serine/threonine-protein kinase 3; experiment: Binding affinity to RIPK3 (unknown origin) assessed as dissociation constant by displacement assay
# Target sequence in this assay (Q9Y572 whole entry): as the sequence (Q9Y572 whole entry, looked up) above
Compound,pEC50 [5],other results
O=C(/C=C/c1ccc([N+](=O)[O-])s1)Nc1ccc(S(=O)(=O)Nc2ncc3ccccc3n2)cc1,6.83,inhibition [1]: Active; inhibition [2]: Active; Activity [3]: inactive; inhibition [4]: inactive; inhibition [6]: inactive; inhibition [7]: inactive
O=C(/C=C/c1ccc([N+](=O)[O-])s1)Nc1ccc(S(=O)(=O)Nc2nc3ccc(C(F)(F)F)cc3s2)cc1,< 4.70,–
O=C(/C=C/c1ccc([N+](=O)[O-])s1)Nc1ccc(S(=O)(=O)Nc2nc3ccc(Br)cc3s2)cc1,< 4.70,–
COc1ccc2nc(NS(=O)(=O)c3ccc(NC(=O)/C=C/c4ccc([N+](=O)[O-])s4)cc3)sc2c1,5.29,–
COc1nccnc1NS(=O)(=O)c1ccc(NC(=O)CCc2cccs2)cc1,–,pEC50 [8]: < 4.70
O=C(/C=C/c1ccc([N+](=O)[O-])s1)Nc1ccc(S(=O)(=O)Nc2ncnc3ccccc23)cc1,6.28,–
O=C(/C=C/c1ccc([N+](=O)[O-])s1)Nc1ccc(S(=O)(=O)Nc2nc3c(F)cccc3s2)cc1,5.13,–
COc1ccc2sc(NS(=O)(=O)c3ccc(NC(=O)/C=C/c4ccc([N+](=O)[O-])s4)cc3)nc2c1,5.15,–
O=C(/C=C/c1ccc([N+](=O)[O-])s1)Nc1ccc(S(=O)(=O)Nc2nc3ccc(Cl)cc3s2)cc1,4.86,–
O=C(/C=C/c1ccc([N+](=O)[O-])s1)Nc1ccc(S(=O)(=O)Nc2nc3ccccc3o2)cc1,5.81,–
O=C(/C=C/c1ccc([N+](=O)[O-])s1)Nc1ccc(S(=O)(=O)Nc2nc3cc(Cl)ccc3s2)cc1,4.79,–
O=C(/C=C/c1ccc([N+](=O)[O-])s1)Nc1ccc(S(=O)(=O)Nc2cnc3ccccc3c2)cc1,6.39,–
O=C(/C=C/c1ccc([N+](=O)[O-])s1)Nc1ccc(S(=O)(=O)Nc2nc3cc(F)ccc3s2)cc1,5.17,–
Cc1ccc2sc(NS(=O)(=O)c3ccc(NC(=O)/C=C/c4ccc([N+](=O)[O-])s4)cc3)nc2c1,5.59,–
COc1nccnc1NS(=O)(=O)c1ccc(NC(=O)CCc2ccc([N+](=O)[O-])s2)cc1,–,pEC50 [8]: < 4.70
O=C(/C=C/c1ccc([N+](=O)[O-])s1)Nc1ccc(S(=O)(=O)Nc2nc3c(Cl)cccc3s2)cc1,5.21,–
O=C(/C=C/c1ccc([N+](=O)[O-])s1)Nc1ccc(S(=O)(=O)Nc2nc3ccc(OC(F)(F)F)cc3s2)cc1,< 4.70,–
O=C(/C=C/c1ccc([N+](=O)[O-])s1)Nc1ccc(S(=O)(=O)Nc2cc3ccccc3cn2)cc1,6.21,–
Cc1ccc2nc(NS(=O)(=O)c3ccc(NC(=O)/C=C/c4ccc([N+](=O)[O-])s4)cc3)sc2c1,5.54,–

Compound,pEC50 [5],other results
O=C(/C=C/c1ccc([N+](=O)[O-])s1)Nc1ccc(S(=O)(=O)Nc2nccc3ccccc23)cc1,6.13,–
O=C(/C=C/c1ccc([N+](=O)[O-])s1)Nc1ccc(S(=O)(=O)Nc2nc3ccc(F)cc3s2)cc1,5.29,–
O=C(/C=C/c1ccc([N+](=O)[O-])s1)Nc1ccc(S(=O)(=O)Nc2nc3ccccc3s2)cc1,5.82,–
O=C(/C=C/c1ccc([N+](=O)[O-])s1)Nc1ccc(S(=O)(=O)Nc2ccnc3ccccc23)cc1,6.24,–
O=C(/C=C/c1ccc([N+](=O)[O-])s1)Nc1ccc(S(=O)(=O)Nc2cnc3ccccc3n2)cc1,6.42,–
C[C@@H](Oc1cc(-c2cnn(C3CCNCC3)c2)cnc1N)c1c(Cl)ccc(F)c1Cl [CRIZOTINIB],–,pIC50 [9]: < 4.40
Nc1nccnc1C(=O)O[C@@H](C(=O)Nc1ccc(F)cc1)c1ccccc1,–,pIC50 [9]: < 4.40; pKd [10]: < 4.52; pKd [11]: < 4.52
Cc1cccc2sc(NS(=O)(=O)c3ccc(NC(=O)/C=C/c4ccc([N+](=O)[O-])s4)cc3)nc12,5.56,–
O=C(/C=C/c1ccc([N+](=O)[O-])s1)Nc1ccc(S(=O)(=O)Nc2nc3c(Br)cccc3s2)cc1,5.13,–
COc1nccnc1NS(=O)(=O)c1ccc(NC(=O)/C=C/c2ccc([N+](=O)[O-])o2)cc1,5.19,–
COc1nccnc1NS(=O)(=O)c1ccc(NC(=O)/C=C/c2ccc([N+](=O)[O-])s2)cc1,–,pEC50 [8]: 6.35; inhibition [4]: inactive; inhibition [6]: inactive
O=C(/C=C/c1ccc([N+](=O)[O-])s1)Nc1ccc(S(=O)(=O)Nc2nc3cc(Br)ccc3s2)cc1,< 4.70,–
O=C(/C=C/c1ccc([N+](=O)[O-])s1)Nc1ccc(S(=O)(=O)Nc2ccc3ccccc3n2)cc1,6.48,–
O=C(/C=C/c1ccc([N+](=O)[O-])s1)Nc1ccc(S(=O)(=O)Nc2cncc3ccccc23)cc1,6.37,–
Cn1c(NS(=O)(=O)c2ccc(NC(=O)/C=C/c3ccc([N+](=O)[O-])s3)cc2)nc2ccccc21,6.32,–
COc1cccc2sc(NS(=O)(=O)c3ccc(NC(=O)/C=C/c4ccc([N+](=O)[O-])s4)cc3)nc12,6.22,inhibition [1]: Active; inhibition [2]: Active; Activity [3]: inactive; inhibition [4]: inactive; inhibition [6]: inactive; inhibition [7]: inactive
COc1nccnc1NS(=O)(=O)c1ccc(NC(=O)/C=C/c2cccs2)cc1,–,pEC50 [8]: < 4.70
O=C(/C=C/c1ccc([N+](=O)[O-])s1)Nc1ccc(S(=O)(=O)Nc2ccc3nccnc3c2)cc1,6.32,–

# — ChEMBL document CHEMBL5550094, “Design, synthesis and anti-necroptosis activity of fused heterocyclic MLKL inhibitors” (Bioorg Med Chem, 2024)
